Measured values published in the supplement of paper PMC10883282.

What was measured:
Experiment in all cases: relative viability vs DMSO control (72 h) (fraction); higher = more viable cells
[1] = tested on: SW872
Method in brief: (§1)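 Serially diluted compound, 2.5 µl from source plates spanning 10 mM to 0.0002 mM, was added 24 h after sarcoma cell lines were seeded in 384-well plates at densities targeting 80–90% confluence. Plates then sat 72 h at 37 °C, 5% CO2, with 0.1% DMSO vehicle and a 5 µM positive control. Relative viability came from ATPLite as percent growth, averaged over up to triplicate wells, and was rescaled with 1 as full and 0 as none.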

[2] = tested on: VA-ES-BJ
Method in brief: as §1

[3] = tested on: G401
Method in brief: as §1

[4] = tested on: KHOS-NP
Method in brief: as §1

[5] = tested on: SK-LMS-1
Method in brief: as §1

[6] = tested on: SW684
Method in brief: as §1

[7] = tested on: SW982
Method in brief: as §1

[8] = tested on: RD-ES
Method in brief: as §1

[9] = tested on: A204
Method in brief: as §1

[10] = tested on: SK-ES-1
Method in brief: as §1

[11] = tested on: HS729
Method in brief: as §1

[12] = tested on: HT1080
Method in brief: as §1

COc1cc(OC)c(/C=C/S(=O)(=O)Cc2ccc(OC)c(NCC(=O)O)c2)c(OC)c1 [Rigosertib]
Conditions | relative viability
[1], 0.00017 µM | 1.04
[1], 0.00051 µM | 1.05
[1], 0.00152 µM | 1.05
[1], 0.00457 µM | 1.06
[1], 0.01372 µM | 1.045
[1], 0.04115 µM | 1.06
[1], 0.1235 µM | 1.019
[1], 0.3704 µM | 0.927
[1], 1.111 µM | 0.515
[1], 3.333 µM | 0.479
[1], 10 µM | 0.477
[2], 0.00017 µM | 1.05
[2], 0.00051 µM | 1.03
[2], 0.00152 µM | 1.02
[2], 0.00457 µM | 1.03
[2], 0.01372 µM | 1.05
[2], 0.04115 µM | 0.961
[2], 0.1235 µM | 0.772
[2], 0.3704 µM | 0.53
[2], 1.111 µM | 0.43
[2], 3.333 µM | 0.403
[2], 10 µM | 0.2992
[3], 0.00017 µM | 1.01
[3], 0.00051 µM | 1
[3], 0.00152 µM | 0.993
[3], 0.00457 µM | 1.02
[3], 0.01372 µM | 1.04
[3], 0.04115 µM | 1.01
[3], 0.1235 µM | 0.983
[3], 0.3704 µM | 0.919
[3], 1.111 µM | 0.534
[3], 3.333 µM | 0.424
[3], 10 µM | 0.361
[4], 0.00017 µM | 1.09
[4], 0.00051 µM | 1.09
[4], 0.00152 µM | 1.1
[4], 0.00457 µM | 1.11
[4], 0.01372 µM | 1.1
[4], 0.04115 µM | 1.11
[4], 0.1235 µM | 1.08
[4], 0.3704 µM | 0.704
[4], 1.111 µM | 0.478
[4], 3.333 µM | 0.414
[4], 10 µM | 0.357
[5], 0.00017 µM | 1.08
[5], 0.00051 µM | 1.05
[5], 0.00152 µM | 1.05
[5], 0.00457 µM | 1.03
[5], 0.01372 µM | 1.03
[5], 0.04115 µM | 0.912
[5], 0.1235 µM | 0.659
[5], 0.3704 µM | 0.492
[5], 1.111 µM | 0.359
[5], 3.333 µM | 0.355
[5], 10 µM | 0.325
[6], 0.00017 µM | 1.14
[6], 0.00051 µM | 1.2
[6], 0.00152 µM | 1.15
[6], 0.00457 µM | 1.19
[6], 0.01372 µM | 1.19
[6], 0.04115 µM | 1.15
[6], 0.1235 µM | 1.02
[6], 0.3704 µM | 0.73
[6], 1.111 µM | 0.681
[6], 3.333 µM | 0.713
[6], 10 µM | 0.756
[7], 0.00017 µM | 1.06
[7], 0.00051 µM | 1.04
[7], 0.00152 µM | 1.05
[7], 0.00457 µM | 1.07
[7], 0.01372 µM | 1.07
[7], 0.04115 µM | 1.06
[7], 0.1235 µM | 0.92
[7], 0.3704 µM | 0.52
[7], 1.111 µM | 0.26
[7], 3.333 µM | 0.256
[7], 10 µM | 0.273
[8], 0.00017 µM | 0.999
[8], 0.00051 µM | 1
[8], 0.00152 µM | 1
[8], 0.00457 µM | 0.993
[8], 0.01372 µM | 1.01
[8], 0.04115 µM | 1
[8], 0.1235 µM | 0.732
[8], 0.3704 µM | 0.143
[8], 1.111 µM | 0.0474
[8], 3.333 µM | 0.031
[8], 10 µM | 0.027
[9], 0.00017 µM | 1.08
[9], 0.00051 µM | 1.06
[9], 0.00152 µM | 1.08
[9], 0.00457 µM | 1.0898
[9], 0.01372 µM | 1.09
[9], 0.04115 µM | 1.07
[9], 0.1235 µM | 1.01
[9], 0.3704 µM | 0.672
[9], 1.111 µM | 0.398
[9], 3.333 µM | 0.319
[9], 10 µM | 0.248
[10], 0.00017 µM | 1
[10], 0.00051 µM | 1.02
[10], 0.00152 µM | 0.98
[10], 0.00457 µM | 1.08
[10], 0.01372 µM | 1.03
[10], 0.04115 µM | 0.987
[10], 0.1235 µM | 0.252
[10], 0.3704 µM | 0.038
[10], 1.111 µM | 0.0202
[10], 3.333 µM | 0.0195
[10], 10 µM | 0.0239
[11], 0.00017 µM | 0.973
[11], 0.00051 µM | 0.989
[11], 0.00152 µM | 0.934
[11], 0.00457 µM | 0.938
[11], 0.01372 µM | 1.02
[11], 0.04115 µM | 0.966
[11], 0.1235 µM | 0.928
[11], 0.3704 µM | 0.85
[11], 1.111 µM | 0.625
[11], 3.333 µM | 0.579
[11], 10 µM | 0.517
[12], 0.00017 µM | 1.07
[12], 0.00051 µM | 1.03
[12], 0.00152 µM | 1.07
[12], 0.00457 µM | 1.06
[12], 0.01372 µM | 1.05
[12], 0.04115 µM | 1.08
[12], 0.1235 µM | 1.06
[12], 0.3704 µM | 0.412
[12], 1.111 µM | 0.0983
[12], 3.333 µM | 0.0596
[12], 10 µM | 0.0541
